According to patent US20160052923A1, “PIPERAZINE AND HOMOPIPERAZINE DERIVATIVES AS HIV […]” (priority 2013, published 2016):
Where two headings read alike, the source gives them in different places.

System: HIV-1 LAI envelope single-round infectious reporter virus
Assay: Single-round infectious HIV-1 LAI luciferase reporter virus infection of MT2 cells
Assay type: cell-based
Conditions: Human immunodeficiency virus 1, MT2, 72 h
Description: • Virus production—Human embryonic Kidney cell line, 293T (HEK 293T), was propagated in Dulbecco's Modified Eagle Medium (Invitrogen, Carlsbad, Calif.) containing 10% fetal bovine serum (FBS, Sigma, St. Louis, Mo.). The human T-cell leukemia cell MT2 (AIDS Research and Reference Reagent Program, Cat. 237) was propagated in RPMI 1640 (Invitrogen, Carlsbad, Calif.) containing 10% fetal bovine serum (FBS, Hyclone, Logan, Utah) • Virus infection—Single-round infectious reporter virus was produced by co-transfecting HEK 293T cells with plasmide expressing the HIV-1 LAI envelope along with a plasmid containing an HIV-1 LAI proviral cDNA with the envelope gene replaced by a firefly luciferase reporter gene (Chen et al., Ref. 41). Transfections were performed using lipofectAMINE PLUS reagent as described by the manufacturer (Invitrogen, Carlsbad, Calif.).
• 1. MT2 cells were plated in black, 384 well plates at a cell density of 5×10^3 cells per well in 25 μl RPMI 1640 containing 10% FBS. • 2. Compound (diluted in dimethylsulfoxide and growth medium) was added to cells at 12.5 μl/well, so that the final assay concentration would be ≦50 nM. • 3. 12.5 μl of single-round infectious reporter virus in Dulbecco's Modified Eagle Medium was added to the plated cells and compound at an approximate multiplicity of infection (MOI) of 0.01, resulting in a final volume of 50 μl per well. • 4. Virus-infected cells were incubated at 37 degrees Celsius in a CO2 incubator and harvested 72 h after infection. • 5. Viral infection was monitored by measuring luciferase expression in the infected cells using a luciferase reporter gene assay kit (Steady-Glo, Promega, Madison, Wis.) as described by the manufacturer. Luciferase activity was then quantified by measuring luminescence using an EnVision Multilabel Plate Readers (PerkinElmer, Waltham, Mass.). • 6. The percent inhibition for each compound was calculated by quantifying the level of luciferase expression in cells infected in the presence of each compound as a percentage of that observed for cells infected in the absence of compound and subtracting such a determined value from 100. • 7. An EC50 provides a method for comparing the antiviral potency of the compounds of the invention. The effective concentration for fifty percent inhibition (EC50) was calculated with the Microsoft Excel Xlfit curve fitting software. For each compound, curves were generated from percent inhibition calculated at 10 different concentrations by using a four parameter logistic model (model 205). Table 1 is the key for the data in Table 2.

[1] = read-out: EC50 Group from Table 1

Row | SMILES | EC50 [nM] | EC50 [1] [nM]
1 | COc1cnc(-n2cnc(C)n2)c2[nH]cc(C(=O)C(=O)N3CCN(C4=NCCc5ccccc54)CC3)c12 [Compound 1001] | 0.85 | < 500
2 | COc1cnc(-n2cnc(C)n2)c2[nH]cc(C(=O)C(=O)N3CCN(C4(c5ccccn5)CC4)CC3)c12 [Compound 1003] |  | > 500
3 | O=C(C(=O)N1CCN(c2cccc3cccnc23)CC1)c1c[nH]c2c(-n3ccnn3)ncc(F)c12 [Compound 2004] |  | < 500
4 | O=C(C(=O)N1CCN(c2cccc3ccccc23)CC1)c1c[nH]c2c(-n3ccnn3)ncc(F)c12 [Compound 2001] | 2.97 | < 500
5 | COc1cnc(-n2cnc(C)n2)c2[nH]cc(C(=O)C(=O)N3CCN(c4nccc5cccnc45)CC3)c12 [Compound 2002] |  | < 500
6 | O=C(C(=O)N1CCCN(c2ccccn2)CC1)c1c[nH]c2c(-n3ccnn3)ncc(F)c12 [Compound 1008] | 89.4 | < 500
7 | COc1cnc(-n2ccnn2)c2[nH]cc(C(=O)C(=O)N3CCN(c4ncnc5ncccc45)CC3)c12 [Compound 2007] |  | < 500
8 | COc1cnc(-n2cnc(C)n2)c2[nH]cc(C(=O)C(=O)N3CCN(C4(c5ccccc5)CC4)CC3)c12 [Compound 1002] |  | > 500
9 | COc1cnc(-n2cnc(C)n2)c2[nH]cc(C(=O)C(=O)N3CCN(c4ccccc4-c4nc5ccccc5s4)CC3)c12 [Compound 1010] |  | < 500
10 | CC(c1ccccc1)N1CCN(C(=O)C(=O)c2c[nH]c3c(-n4ccnn4)ncc(F)c23)CC1 (stereo not shown) [Compound 1005] |  | < 500
11 | O=C(C(=O)N1CCN(c2ncnc3ncccc23)CC1)c1c[nH]c2c(-n3ccnn3)ncc(F)c12 [Compound 2008] | 1.24 | < 500
12 | COc1cnc(-n2cnc(C)n2)c2[nH]cc(C(=O)C(=O)N3CCN(c4cccc5ccncc45)CC3)c12 [Compound 2003] |  | < 500
13 | O=C(C(=O)N1CCCN(Cc2ccccc2)CC1)c1c[nH]c2c(-n3ccnn3)ncc(F)c12 [Compound 1007] |  | < 500
14 | O=C(C(=O)N1CCCN(c2nnnn2-c2ccccc2)CC1)c1c[nH]c2c(-n3ccnn3)ncc(F)c12 [Compound 1009] |  | < 500
15 | COc1cnc(-n2cnc(C(N)=O)n2)c2[nH]cc(C(=O)C(=O)N3CCN(c4nc5ccccn5n4)CC3)c12 [Compound 1004] |  | < 500
16 | COc1cnc(-n2cnc(C)n2)c2[nH]cc(C(=O)C(=O)N3CCN(c4cccc5cccnc45)CC3)c12 [Compound 2005] |  | < 500
17 | O=C(C(=O)N1CCN(Cc2ccccn2)CC1)c1c[nH]c2c(-n3ccnn3)ncc(F)c12 [Compound 1006] |  | < 500
18 | COc1cnc(-n2cnc(C)n2)c2[nH]cc(C(=O)C(=O)N3CCN(c4ncnc5ncccc45)CC3)c12 [Compound 2006] |  | < 500
